Patent US11161856B2 (H. Lundbeck A/S, priority 2017, dated 2021)

Experiments:
Assay type in all cases: biochemical
MAGL = molecular target: T1, MAGL (Homo sapiens, UniProt Q99685); test: In vitro competitive activity-based protein profiling (FP-Rh or HT-01 probe, gel-based); design: IC50 MGLL PC3 (Human, μM) / IC50 MGLL PFC (Human, μM): scale not given here; settings: for % Inh MGLL PFC (Human, μM): prefrontal cortex (PFC) proteome; for % Inh MGLL PFC (Human, μM) / % Inh MGLL PC3 (Human, μM): concentration not given (μM); for IC50: read-out: IC50 MGLL PC3 (Human)
T1 construct: Proteomes (human prefrontal cortex or cell membrane fractions); from tissue
T1 sequence (Q99685 1-303): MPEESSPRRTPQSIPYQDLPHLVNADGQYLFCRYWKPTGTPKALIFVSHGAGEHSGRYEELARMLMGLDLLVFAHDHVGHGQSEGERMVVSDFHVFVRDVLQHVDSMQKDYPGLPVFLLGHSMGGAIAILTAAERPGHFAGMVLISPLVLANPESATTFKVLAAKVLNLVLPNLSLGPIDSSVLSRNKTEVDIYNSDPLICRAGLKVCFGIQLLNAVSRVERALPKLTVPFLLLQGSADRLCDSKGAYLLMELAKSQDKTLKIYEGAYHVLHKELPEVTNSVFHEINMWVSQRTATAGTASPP
Outline: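 Human prefrontal cortex or cell membrane proteomes (1.0 mg/mL total protein) were preincubated with varying inhibitor concentrations for 30 min at 37° C. FP-Rh or HT-01 probe (50 μM DMSO stock) was then added for 30 min at room temperature, and samples were quenched in SDS loading buffer and resolved by SDS-PAGE.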

MGLL = molecular target: T2, MGLL (Mus musculus, UniProt O35678); test: In vitro competitive activity-based protein profiling, mouse brain proteome (MGLL); settings: concentration not given (μM)
T2 construct: Brain; from tissue; host or cells: mouse brain proteome
T2 sequence (O35678 1-303): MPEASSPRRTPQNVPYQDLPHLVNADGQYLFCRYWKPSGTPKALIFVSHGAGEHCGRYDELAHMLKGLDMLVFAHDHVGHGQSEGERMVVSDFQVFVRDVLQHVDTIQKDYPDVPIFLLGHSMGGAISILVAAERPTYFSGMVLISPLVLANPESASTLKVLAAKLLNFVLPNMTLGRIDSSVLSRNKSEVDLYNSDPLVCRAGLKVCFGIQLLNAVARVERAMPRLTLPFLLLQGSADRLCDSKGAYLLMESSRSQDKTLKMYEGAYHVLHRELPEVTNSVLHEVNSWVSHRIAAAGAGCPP

ABHD6 = molecular target: T3, ABHD6 (Mus musculus, UniProt Q8R2Y0); test: In vitro competitive activity-based protein profiling, mouse brain proteome (ABHD6); settings: mouse brain proteome; concentration not given (μM)
T3 construct: Brain; from tissue; host or cells: mouse brain proteome
T3 sequence (Q8R2Y0 1-336): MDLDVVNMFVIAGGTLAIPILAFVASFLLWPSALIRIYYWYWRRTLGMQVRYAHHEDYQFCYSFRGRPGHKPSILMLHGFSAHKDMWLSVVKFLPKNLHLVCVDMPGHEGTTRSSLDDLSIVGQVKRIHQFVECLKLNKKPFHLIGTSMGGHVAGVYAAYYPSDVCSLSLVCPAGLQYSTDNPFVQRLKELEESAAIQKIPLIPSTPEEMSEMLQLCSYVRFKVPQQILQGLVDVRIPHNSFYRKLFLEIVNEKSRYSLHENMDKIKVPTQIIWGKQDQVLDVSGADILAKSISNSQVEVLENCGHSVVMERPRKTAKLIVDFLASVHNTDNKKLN
Procedure: [The source words this procedure for another target and reports this target under the same test.] In Vitro Competitive Activity-Based Protein Profiling.
Proteomes (human prefrontal cortex or cell membrane fractions) (50 μL, 1.0 mg/mL total protein concentration) were preincubated with varying concentrations of inhibitors at 37° C. After 30 min, FP-Rh or HT-01 (1.0 μL, 50 μM in DMSO) was added and the mixture was incubated for another 30 min at room temperature. Reactions were quenched with SDS loading buffer (15 μL-4×) and run on SDS-PAGE.

SMILES	% Inh MGLL PFC (Human, μM) (MAGL)	% Inh MGLL Brain (Mouse, μM) (MGLL)	% Inh ABHD6 Brain (Mouse, μM) (ABHD6)	IC50 MGLL PC3 (Human, μM) (MAGL; PC3 cell proteome)	% Inh MGLL PC3 (Human, μM) (MAGL; PC3 cell proteome)	IC50 (MAGL; PC3 cell proteome) [nM]
O=C(O)C1CCN(c2c(Cl)cccc2CN2CCC3(CC2)CCN(C(=O)OC(C(F)(F)F)C(F)(F)F)C3)CC1 [Example 218, l-(2-Chloro-6-{(2-(((1,1,1,3,3,3-hexafluoropropan-2-yl)oxy)carbonyl)-2,8-diazaspiro[4.5]decan-8-yl)methyl)phenyl)piperidine-4-carboxylic acid]	### (### is ≥75%)	### (### is ≥75%)	# (# is ≤25%)			
O=C(O)C1CCN(Cc2ccc(CN3CCC4(CC3)CCN(C(=O)OC(C(F)(F)F)C(F)(F)F)C4)cc2C(F)(F)F)CC1 [Example 225, l-(4-((2-(((1,1,1,3,3,3-Hexafluoropropan-2-yl)oxy)carbonyl)-2,8-diazaspiro[4.5]decan-8-yl)methyl)-2-(trifluoromethyl)benzyl) piperidine-4-carboxylic acid]	## (## is between 25 and 75%)	# (# is ≤25%)	## (## is between 25 and 75%)			
O=C(O)c1cc(CN2CC3(CCN(C(=O)OC(C(F)(F)F)C(F)(F)F)CC3)C2)ccc1C(F)(F)F [Example 21, 5-((7-(((1,1,1,3,3,3-Hexafluoropropan-2-yl)oxy)carbonyl)-2,7-diazaspiro[3.5]nonan-2-yl)methyl)-2-(trifluoromethyl)benzoic acid]	### (### is ≥75%)	### (### is ≥75%)	### (### is ≥75%)	* * *		
O=C(O)[C@H]1CCCN(c2cc(CN3CC4(CCN(C(=O)OC(C(F)(F)F)C(F)(F)F)CC4)C3)cc(C(F)(F)F)c2)C1 [Example 106, (S)-1-(3-((7-(((1,1,1,3,3,3-Hexafluoropropan-2-yl)oxy)carbonyl)-2,7-diazaspiro[3,5]nonan-2-yl)methyl)-5-(trifluoromelhyl)phenyl) piperidine-3-carboxylic acid]	### (### is ≥75%)	### (### is ≥75%)	### (### is ≥75%)			
CN(Cc1ccc(C(F)(F)F)cc1N1CCC(N2CCC[C@@H]2C(=O)O)CC1)C1(C)CCN(C(=O)OC(C(F)(F)F)C(F)(F)F)CC1 [Example 162, (1-(2-(((1-(((1,1,1,3,3,3-Hexafluoropropan-2-yl)oxy)carbonyl)-4-methylpiperidin-4-yl)(methyl)amino)methyl)-5-(trifluoromethyl)phenyl)piperidin-4-yl)-D-proline]		### (### is ≥75%)	# (# is ≤25%)		### (### is ≥75%)	< 100
CC1(C(=O)O)CN(c2cc(C(F)(F)F)ccc2CN2CC3(CCN(C(=O)OC(C(F)(F)F)C(F)(F)F)CC3)C2)CCO1 (stereo not shown) [Example 130, 4-(2-((7-(((1,1,1,3,3,3-Hexafluoropropan-2-yl)oxy)carbonyl)-2,7-diazaspiro[3.5]nonan-2-yl)methyl)-5-(trifluoromethyl)phenyl)-2-methylmorpholine-2-carboxylic acid]	### (### is ≥75%)	### (### is ≥75%)	# (# is ≤25%)			
O=C(O)C1CCN(c2cc(CN3CC4(CCN(C(=O)OC(C(F)(F)F)C(F)(F)F)CC4)C3)cc(C(F)(F)F)c2)CC1 [Example 99, 1-(3-((7-(((1,1,1,3,3,3-Hexafluoropropan-2-yl)oxy)carbonyl)-2,7-diazaspiro[3.5]nonan-2-yl)methyl)-5-(trifluoromethyl)phenyl)piperi-dine-4-carboxylic acid]	### (### is ≥75%)	### (### is ≥75%)	### (### is ≥75%)			
O=C(O)C1CCCCN1c1cc(C(F)(F)F)ccc1CN1CC2(CCN(C(=O)OC(C(F)(F)F)C(F)(F)F)CC2)C1 (stereo not shown) [Example 23, 1-(2-((7-(((1,1,1,3,3,3-Hexafluoropropan-2-yl)oxy)carbonyl)-2,7-diazaspiro[3.5]nonan-2-yl)methyl)-5-(trifluoromethyl)phenyl)piperidine-2-carboxylic acid]	### (### is ≥75%)	# (# is ≤25%)	# (# is ≤25%)			
CN(Cc1ccc(C(F)(F)F)cc1N1CCC(N2CCC[C@H]2C(=O)O)CC1)C1(C)CCN(C(=O)OC(C(F)(F)F)C(F)(F)F)CC1 [Example 163, (1-(2-(((1-(((1,1,1,3,3,3-Hexafluoropropan-2-yl)oxy)carbonyl)-4-methylpiperidin-4-yl)(methyl)amino)methyl)-5-(trifluoromethyl)phenyl)piperidin-4-yl)-L-proline]		### (### is ≥75%)	# (# is ≤25%)		### (### is ≥75%)	< 100
O=C(O)[C@@H]1CCCN1C1CCN(c2cc(C(F)(F)F)ccc2CN2CCCC23CCN(C(=O)OC(C(F)(F)F)C(F)(F)F)CC3)CC1 [Example 164, (1-(2-((8-(((1,1,1,3,3,3-Hexafluoropropan-2-yl)oxy)carbonyl)-1,8-diazaspiro[4.5]decan-1-yl)methyl)-5-(trifluoromethyl)phenyl)piperidin-4-yl)-L-proline]		### (### is ≥75%)	# (# is ≤25%)		### (### is ≥75%)	< 100
CN(Cc1ccc(C(F)(F)F)cc1OCC(=O)O)C1(C)CCN(C(=O)OC(C(F)(F)F)C(F)(F)F)CC1 [Example 136, 2-(2-(((1-(((1,1,1,3,3,3-Hexafluoropropan-2-yl)oxy)carbonyl)-4-methylpiperidin-4-yl)(methyl)amino)methyl)-5-(trifluoromethyl)phenoxy)acetic acid]		### (### is ≥75%)	# (# is ≤25%)		### (### is ≥75%)	
O=C(O)C1CCN(c2cc(F)ccc2CN2CC3(CCN(C(=O)OC(C(F)(F)F)C(F)(F)F)CC3)C2)CC1 [Example 123, l-(5-Fluoro-2-((7-(((1,1,1,3,3,3-hexafluoropropan-2-yl)oxy)carbonyl)-2,7-diazaspiro[3,5]nonan-2-yl)methyl)phenyl)piperidine-4-carboxylic acid]	### (### is ≥75%)	### (### is ≥75%)	# (# is ≤25%)			
O=C(O)CN1CC2CC1CN2c1cc(CN2CC3(CCN(C(=O)OC(C(F)(F)F)C(F)(F)F)CC3)C2)cc(C(F)(F)F)c1 (stereo not shown) [Example 129, 2-(5-{3-[(7-{[(U,l,3,3,3-Hexafluoropropan-2-yl)oxy]carbonyl}-2,7-diazaspiro[3.5]nonan-2-yl)methyl]-5-(trifluoromethyl)phenyl}-2,5-diazabicyclo[2.2.1]heptan-2-yl)acetic acid]	## (## is between 25 and 75%)	### (### is ≥75%)	### (### is ≥75%)			
CN(Cc1ccc(C(F)(F)F)cc1C1(C(=O)O)CCCC1)C1(C)CCN(C(=O)OC(C(F)(F)F)C(F)(F)F)CC1 [Example 133, l-(2-{[(1-{[(1,1,1,3,3,3-Hexafluoropropan-2-yl)oxy]carbonyl}-4-methylpiperidin-4-yl)(methyl)amino]methyl}-5-(trifluoromethyl)phenyl)cyclop entane-1-carboxylic acid]		### (### is ≥75%)	# (# is ≤25%)		### (### is ≥75%)	
